Assay results taken from ChEMBL document CHEMBL1687815, “In vivo selection of a missense mutation in adeR and conversion of the novel blaOXA-164 gene into blaOXA-58 in carbapenem-resistant Acinetobacter baumannii isolates from a hospitalized patient” (2010).
Values after ≈ are worked out from the molar mass of the structure shown. Active and inactive are the calls of the source. No cut-off for these calls is given here.

Columns and labels:
Acinetobacter baumannii [1] = assay: Antimicrobial activity against Acinetobacter baumannii isolate M expressing beta-lactamase OXA-58 isolated from tracheal secretion of patient by vitek 2 system
Acinetobacter baumannii [2] = assay: Antimicrobial activity against Acinetobacter baumannii isolate D expressing beta-lactamase OXA-164 isolated from tracheal secretion of patient by vitek 2 system
Acinetobacter baumannii [3] = assay: Antimicrobial activity against Acinetobacter baumannii isolate F expressing beta-lactamase OXA-164 isolated from tracheostoma of patient by vitek 2 system
Acinetobacter baumannii [4] = assay: Antimicrobial activity against Acinetobacter baumannii isolate L expressing beta-lactamase OXA-58 isolated from tracheal secretion of patient by vitek 2 system
Acinetobacter baumannii [5] = assay: Antimicrobial activity against Acinetobacter baumannii isolate E expressing beta-lactamase OXA-164 isolated from tracheal secretion of patient by vitek 2 system
Acinetobacter baumannii [6] = assay: Antimicrobial activity against Acinetobacter baumannii isolate G expressing beta-lactamase OXA-58 isolated from tracheal secretion of patient by vitek 2 system
Acinetobacter baumannii [7] = assay: Antimicrobial activity against Acinetobacter baumannii isolate H expressing beta-lactamase OXA-58 isolated from tracheal secretion of patient by vitek 2 system
Acinetobacter baumannii [8] = assay: Antimicrobial activity against Acinetobacter baumannii isolate B expressing beta-lactamase OXA-164 isolated from tracheal secretion of patient by vitek 2 system
Acinetobacter baumannii [9] = assay: Antimicrobial activity against Acinetobacter baumannii isolate I expressing beta-lactamase OXA-58 isolated from tracheal secretion of patient by vitek 2 system
Acinetobacter baumannii [10] = assay: Antimicrobial activity against Acinetobacter baumannii isolate K expressing beta-lactamase OXA-58 isolated from blood culture of patient by vitek 2 system
Acinetobacter baumannii [11] = assay: Antimicrobial activity against Acinetobacter baumannii isolate C expressing beta-lactamase OXA-164 isolated from tracheal secretion of patient by vitek 2 system
Acinetobacter baumannii [12] = assay: Antimicrobial activity against Acinetobacter baumannii isolate A expressing beta-lactamase OXA-164 isolated from tracheal secretion of patient by vitek 2 system
Acinetobacter baumannii [13] = assay: Antimicrobial activity against Acinetobacter baumannii isolate J expressing beta-lactamase OXA-58 isolated from bedsore by vitek 2 system

## CO/N=C(\C(=O)N[C@@H]1C(=O)N2C(C(=O)[O-])=C(C[N+]3(C)CCCC3)CS[C@H]12)c1csc(N)n1
Acinetobacter baumannii [1]
  MIC: inactive
Acinetobacter baumannii [2]
  MIC: inactive
Acinetobacter baumannii [3]
  MIC: inactive
Acinetobacter baumannii [4]
  MIC: inactive
Acinetobacter baumannii [5]
  MIC: inactive
Acinetobacter baumannii [6]
  MIC: inactive
Acinetobacter baumannii [7]
  MIC: inactive
Acinetobacter baumannii [8]
  MIC: inactive
Acinetobacter baumannii [9]
  MIC: inactive
Acinetobacter baumannii [10]
  MIC: inactive
Acinetobacter baumannii [11]
  MIC: inactive
Acinetobacter baumannii [12]
  MIC: inactive
Acinetobacter baumannii [13]
  MIC: inactive

## CO[C@@]1(NC(=O)Cc2cccs2)C(=O)N2C(C(=O)O)=C(COC(N)=O)CS[C@@H]21
Acinetobacter baumannii [1]
  MIC: inactive
Acinetobacter baumannii [2]
  MIC: inactive
Acinetobacter baumannii [3]
  MIC: inactive
Acinetobacter baumannii [4]
  MIC: inactive
Acinetobacter baumannii [5]
  MIC: inactive
Acinetobacter baumannii [6]
  MIC: inactive
Acinetobacter baumannii [7]
  MIC: inactive
Acinetobacter baumannii [8]
  MIC: inactive
Acinetobacter baumannii [9]
  MIC: inactive
Acinetobacter baumannii [10]
  MIC: inactive
Acinetobacter baumannii [11]
  MIC: inactive
Acinetobacter baumannii [12]
  MIC: inactive
Acinetobacter baumannii [13]
  MIC: inactive

## CC(C)(O/N=C(\C(=O)N[C@@H]1C(=O)N2C(C(=O)[O-])=C(C[n+]3ccccc3)CS[C@H]12)c1csc(N)n1)C(=O)O
Acinetobacter baumannii [1]
  MIC: inactive
Acinetobacter baumannii [2]
  MIC: inactive
Acinetobacter baumannii [3]
  MIC: inactive
Acinetobacter baumannii [4]
  MIC: inactive
Acinetobacter baumannii [5]
  MIC: inactive
Acinetobacter baumannii [6]
  MIC: inactive
Acinetobacter baumannii [7]
  MIC: inactive
Acinetobacter baumannii [8]
  MIC: inactive
Acinetobacter baumannii [9]
  MIC: inactive
Acinetobacter baumannii [10]
  MIC: inactive
Acinetobacter baumannii [11]
  MIC: inactive
Acinetobacter baumannii [12]
  MIC: inactive
Acinetobacter baumannii [13]
  MIC: inactive

## COLISTIN
Acinetobacter baumannii [1]
  MIC: < 1 µg/mL
Acinetobacter baumannii [2]
  MIC: < 1 µg/mL
Acinetobacter baumannii [3]
  MIC: < 1 µg/mL
Acinetobacter baumannii [4]
  MIC: < 1 µg/mL
Acinetobacter baumannii [5]
  MIC: < 1 µg/mL
Acinetobacter baumannii [6]
  MIC: < 1 µg/mL
Acinetobacter baumannii [7]
  MIC: < 1 µg/mL
Acinetobacter baumannii [8]
  MIC: < 1 µg/mL
Acinetobacter baumannii [9]
  MIC: < 1 µg/mL
Acinetobacter baumannii [10]
  MIC: < 1 µg/mL
Acinetobacter baumannii [11]
  MIC: < 1 µg/mL
Acinetobacter baumannii [12]
  MIC: < 1 µg/mL
Acinetobacter baumannii [13]
  MIC: < 1 µg/mL

## NCC[C@H](O)C(=O)N[C@@H]1C[C@H](N)[C@@H](O[C@H]2O[C@H](CN)[C@@H](O)[C@H](O)[C@H]2O)[C@H](O)[C@H]1O[C@H]1O[C@H](CO)[C@@H](O)[C@H](N)[C@H]1O [AMIKACIN]
Acinetobacter baumannii [1]
  MIC: ≥ 64 µg/mL
Acinetobacter baumannii [2]
  MIC: ≤ 2 µg/mL
Acinetobacter baumannii [3]
  MIC: ≥ 64 µg/mL
Acinetobacter baumannii [4]
  MIC: ≥ 64 µg/mL
Acinetobacter baumannii [5]
  MIC: ≤ 2 µg/mL
Acinetobacter baumannii [6]
  MIC: ≥ 64 µg/mL
Acinetobacter baumannii [7]
  MIC: ≥ 64 µg/mL
Acinetobacter baumannii [8]
  MIC: ≥ 64 µg/mL
Acinetobacter baumannii [9]
  MIC: ≥ 64 µg/mL
Acinetobacter baumannii [10]
  MIC: ≥ 64 µg/mL
Acinetobacter baumannii [11]
  MIC: 32 µg/mL (≈ 54.6 µM)
Acinetobacter baumannii [12]
  MIC: ≥ 64 µg/mL
Acinetobacter baumannii [13]
  MIC: ≥ 64 µg/mL

## CO/N=C(\C(=O)N[C@@H]1C(=O)N2C(C(=O)O)=C(COC(C)=O)CS[C@H]12)c1csc(N)n1
Acinetobacter baumannii [1]
  MIC: inactive
Acinetobacter baumannii [2]
  MIC: inactive
Acinetobacter baumannii [3]
  MIC: inactive
Acinetobacter baumannii [4]
  MIC: inactive
Acinetobacter baumannii [5]
  MIC: inactive
Acinetobacter baumannii [6]
  MIC: inactive
Acinetobacter baumannii [7]
  MIC: inactive
Acinetobacter baumannii [8]
  MIC: inactive
Acinetobacter baumannii [9]
  MIC: inactive
Acinetobacter baumannii [10]
  MIC: inactive
Acinetobacter baumannii [11]
  MIC: inactive
Acinetobacter baumannii [12]
  MIC: inactive
Acinetobacter baumannii [13]
  MIC: inactive

## O=C(O)c1cn(C2CC2)c2cc(N3CCNCC3)c(F)cc2c1=O
Acinetobacter baumannii [1]
  MIC: inactive
Acinetobacter baumannii [2]
  MIC: inactive
Acinetobacter baumannii [4]
  MIC: inactive
Acinetobacter baumannii [5]
  MIC: inactive
Acinetobacter baumannii [6]
  MIC: inactive
Acinetobacter baumannii [7]
  MIC: inactive
Acinetobacter baumannii [8]
  MIC: inactive
Acinetobacter baumannii [9]
  MIC: inactive
Acinetobacter baumannii [10]
  MIC: inactive
Acinetobacter baumannii [11]
  MIC: inactive
Acinetobacter baumannii [12]
  MIC: inactive
Acinetobacter baumannii [13]
  MIC: inactive

## C[C@@H]1O[C@@H]1P(=O)(O)O
Acinetobacter baumannii [1]
  MIC: inactive
Acinetobacter baumannii [2]
  MIC: inactive
Acinetobacter baumannii [3]
  MIC: inactive
Acinetobacter baumannii [4]
  MIC: inactive
Acinetobacter baumannii [5]
  MIC: inactive
Acinetobacter baumannii [6]
  MIC: inactive
Acinetobacter baumannii [7]
  MIC: inactive
Acinetobacter baumannii [8]
  MIC: inactive
Acinetobacter baumannii [9]
  MIC: inactive
Acinetobacter baumannii [10]
  MIC: inactive
Acinetobacter baumannii [11]
  MIC: inactive
Acinetobacter baumannii [12]
  MIC: inactive
Acinetobacter baumannii [13]
  MIC: inactive
